# In patent publication US20240245806A1, “TREATMENT OF NEURODEGENERATIVE DISEASE USING CSA- AND INDY-TYPE COMPOUNDS” (BROWN UNIVERSITY, priority 2021, published 2024):
# Entries after “also recorded” stand apart in the source; their conditions may differ.
# How the values were obtained:
# [1] = system: transplant patients; conditions: all age groups above 65; cited from earlier work
# [2] = system: zebrafish larvae; experiment: Acute exposure of 5 dpf zebrafish larvae to modulators of calcineurin signaling, automated analysis of behavior; type: in vivo, Danio rerio; conditions: vs DMSO
# Description: Zebrafish larvae were treated at 5 dpf with various modulators of calcineurin signaling, starting 3 hours before imaging. The larvae were then imaged for a total of 3 hours using a behavioral assay with various visual and acoustic stimuli (FIG. 6). The behavioral assay started with a 1-hour period without stimuli, followed by 80 minutes with visual stimuli, 10 minutes without visual or acoustic stimuli, and 30 minutes with acoustic stimuli. Values of activity (% move) and position (% up) were averaged in individual larvae during 10-minute periods, for a total of 18 periods. These values were subsequently averaged between larvae in the same treatment group. We examined a total of 10 treatment groups. For clarity, only 3 treatment groups were graphed (FIG. 6), but all 10 treatment groups were analyzed in detail as shown in subsequent figures. […] The assay provides quantitative information on activity, visually-guided behaviors and acoustic startle responses.
# To determine if larval zebrafish behavior is affected by modulation of calcineurin signaling, we imaged 5 day-old larvae in the following 10 treatment groups: 10 μM cyclosporine A (CsA), 1 μM tacrolimus (FK506), 5 or 10 μM proINDY, a combination of CsA+5 or 10 μM proINDY, or a combination of FK506+5 or 10 μM proINDY, DMSO as a vehicle control, and 1 μM rapamycin as a control for target specificity. Rapamycin and FK506 are both macrolide immunosuppressants with similar structures, however, rapamycin affects Target of Rapamycin (TOR) signaling instead of calcineurin signaling. Vellanki et al., Front Mol Biosci 7, 588913 (2020). The concentrations of CsA, FK506 and rapamycin were selected based on prior studies in zebrafish embryos and larvae. Clift et al., Behav Brain Res 282, 117-124 (2015). The two concentrations of proINDY, a membrane-permeable form of INDY (inhibitor of DYRK), were selected based on studies in cell lines and Xenopus embryos. Ogawa et al., Nat Commun 1, 86 (2010).
# The research project has been conducted in accordance with local and federal guidelines for ethical and humane use of animals and has been reviewed and approved by the Brown University Institutional Animal Care and Use Committee. Zebrafish (Danio rerio) embryos were collected and grown to larval stages as previously described. Thorn et al., Sci Rep 9, 13989 (2019). Adult wild-type zebrafish are maintained at Brown University as a genetically-diverse outbred strain in a mixed male and female population. Zebrafish embryos from 0-3 days post-fertilization (dpf) and zebrafish larvae from 3-5 dpf were maintained at 28.5° C. in 2 L culture trays with egg water, containing 60 mg/L sea salt (Instant Ocean) and 0.25 mg/L methylene blue in deionized water. Embryos and larvae were kept on a 12 hour light/12 hour dark cycle and were randomly assigned to different experimental groups prior to experimental manipulation. The sex of embryos and larvae cannot be determined at such early stages because zebrafish use elusive polygenic factors for sex determination, and both males and females have juvenile ovaries between 2.5 and 4 weeks of development. Zebrafish larvae were imaged at 5 dpf when the larvae display a range of locomotor behaviors and consume nutrients available in the yolk sac. Larvae are approximately 4 mm long at the 5 dpf stage.
# Cyclosporine (cyclosporin A, Enzo Life Sciences), FK506 (tacrolimus, Enzo Life Sciences), rapamycin (Santa Cruz Biotechnology) and proINDY (Tocris Bioscience) were diluted in egg water from 1000× stocks dissolved in dimethyl sulfoxide (DMSO). DMSO (1 μl/ml DMSO) was added to the single treatments and the corresponding DMSO concentration was used as a vehicle control for all solutions. Larvae were exposed at 5 dpf to treatment solutions or DMSO for a total of 6 hours. Larvae were first treated in a Petri dish for 2 hours, transferred with the treatment solution to white 96-well ProxiPlates (PerkinElmer, 6006290) for 1 hour, and then imaged in the treatment solution for 3 hours. […]
# [3] = system: zebrafish embryos and larvae; experiment: Developmental exposure (2-3, 3-4 or 4-5 dpf) of zebrafish to modulators of calcineurin signaling, behavior imaged at 5 dpf; type: in vivo; conditions: for early activity (first hour): imaged 5 dpf
# Description: Zebrafish. Adult wild type zebrafish (Danio rerio) are maintained at Brown University as a genetically-diverse outbred strain in a mixed male and female population. Zebrafish embryos were collected and grown to larval stages as described previously. Thorn et al., Sci Rep 9, 13989 (2019). Embryos from 0-3 days post-fertilization (dpf) and larvae from 3-5 dpf were kept on a 12 hour light/12 hour dark cycle at 28.5° C. in 2 L culture trays with egg water, containing 60 mg/L sea salt (Instant Ocean) and 0.25 mg/L methylene blue in deionized water. Zebrafish embryos and larvae were randomly assigned to different experimental groups prior to experimental manipulation. The sex of embryos and larvae cannot be determined at such early stages because zebrafish use elusive polygenic factors for sex determination, and both males and females have juvenile ovaries between 2.5 and 4 weeks of development. Liew et al., Brief Funct Genomics 13(2), 172-187 (2014). Zebrafish larvae were imaged at 5 dpf when they are approximately 4 mm long, display a range of locomotor behaviors and consume nutrients available in the yolk sac. Clift et al., Zebrafish 11(5), 455-461 (2014).
# Pharmacological treatments. Zebrafish embryos and larvae were treated with 10 μM CsA (cyclosporin A, Enzo Life Sciences), 1 μM FK506 (tacrolimus, Enzo Life Sciences), 1 μM rapamycin (Santa Cruz Biotechnology), 5 μM proINDY (Tocris Bioscience) or co-treatments of either 10 μM CsA+5 μM proINDY or 1 μM FK506+5 μM proINDY. […] Clift et al., Behav Brain Res, 282, 117-124 (2015). […] Robinson et al., J Appl Toxicol 37(12), 1438-1447 (2017). […] All administered compounds were diluted in egg water from 1000× stocks dissolved in dimethyl sulfoxide (DMSO). The corresponding DMSO concentration (1 μl DMSO/ml egg water) was used as a vehicle control. Embryos and larvae were treated during one of the following developmental stages: 2-3, 3-4, or 4-5 dpf. The embryos and larvae were treated in 10 cm Petri dishes for 24 hours, rinsed three times with egg water, and then transferred to new Petri dishes with egg water. Larvae that were treated from 4-5 dpf were rinsed and kept in egg water for 3 hours prior to imaging, typically from 10 am to 1 pm. All treatment groups were imaged at 5 dpf in egg water. For imaging, larvae were transferred to white 96-well ProxiPlates (PerkinElmer, 6006290) and were imaged for 3 hours, typically from 1-4 pm (FIG. 12).
# Imaging of zebrafish larvae. Zebrafish larvae were imaged in a 384-well imaging system as described previously. Thorn et al., Sci Rep 9, 13989 (2019). Briefly, four 96-well ProxiPlates were placed on a glass stage inside a temperature-controlled cabinet, set at 28.5° C. The upper shelf of the cabinet holds a high-resolution camera (18-megapixel Canon EOS Rebel T6 with an EF-S 55-250 mm f/4.0-5.6 IS zoom lens), connected to a continuous power supply (Canon ACK-E10 AC Adapter) and controlled by a laptop computer. Images are acquired using Canon's Remote Capture software (EOS Utility, version 3), which is included with the camera. Every 6 seconds, the camera acquires a high-resolution image of larvae in the microplates (FIG. 12). Two small speakers (OfficeTec USB Computer Speakers Compact 2.0 System) are located speaker-side down on the glass stage. Speakers were connected by USB to the laptop computer and set to maximum volume (85 dBA).
# Behavioral assay. Larval behaviors were imaged for 3 hours, as described previously. Thorn et al., Sci Rep 9, 13989 (2019). […] The PowerPoint started with a light background for 60 minutes without visual or acoustic stimuli, followed by 80 minutes with visual stimuli, 10 minutes without stimuli, and 30 minutes with acoustic stimuli (FIG. 12). Larvae were not exposed to visual stimuli and acoustic stimuli at the same time. The visual stimuli consisted of a series of lines that moved upwards or downwards in the microplates, in a horizontal plane. […]
# [4] = 5 dpf acute exposure, 10 μM CsA, 1 μM FK506, 1 μM rapamycin, proINDY
smiles,measurement,setting,value
"C=CC[C@@H]1/C=C(\C)C[C@H](C)C[C@H](OC)[C@H]2O[C@@](O)(C(=O)C(=O)N3CCCC[C@H]3C(=O)O[C@H](/C(C)=C/[C@@H]3CC[C@@H](O)[C@H](OC)C3)[C@H](C)[C@@H](O)CC1=O)[C@H](C)C[C@@H]2OC [FK506, tacrolimus]",development of Alzheimer's disease in treated transplant patients,[1],rarely develops
same,optomotor response (OMR),[2]; 5 dpf acute exposure,decreased optomotor responses
same,early activity (first hour of imaging),[2]; [4],increased early larval activity; also recorded: significant increase in both early and late activity
same,late activity (period 15),[2]; [4],increased activity; also recorded: significant increase in both early and late activity
same,activity,"[2]; 5 dpf acute exposure, 10 μM CsA, 1 μM FK506, proINDY 5 or 10 μM",increased activity
same,excitability (acoustic stimuli at 1-second intervals),[2]; 5 dpf acute,increase in excitability; also recorded: increased excitability
same,habituation to acoustic stimuli at 1-second intervals,[2]; 5 dpf acute,decreased habituation
same,optomotor response to red lines,"[2]; 5 dpf acute, proINDY 5 μM",decreased optomotor responses
same,startle responses (20-second interval),"[3]; all exposure groups, vs DMSO",decrease startle responses
same,OMR Blue,[3]; exposure 2-3 dpf,decrease in OMR Blue
same,OMR Green,[3]; exposure 2-3 dpf,decrease in OMR Green
same,OMR RGB,[3]; exposure 2-3 dpf,decrease in OMR RGB
same,behavioral profile,[3]; exposure 2-3 dpf,"hyperactivity, low habituation, and low optomotor responses"
same,habituation to acoustic stimuli (1 second interval),[3]; exposure 2-3 dpf,reduced larval habituation
same,startle responses (20-second interval),[3]; exposure 2-3 dpf,strongly reduced
same,early activity (first hour),[3]; exposure 2-3 dpf,hyperactivity
same,habituation to acoustic stimuli (1 second interval),[3]; exposure 3-4 dpf,reduced larval habituation
same,late activity (period 15),[3]; exposure 3-4 dpf,substantial increases in activity
same,startle responses (20-second interval),[3]; exposure 3-4 dpf,reduced
same,early activity (first hour),[3]; exposure 3-4 dpf,hyperactivity
same,OMR Fast Red,[3]; exposure 4-5 dpf,decrease in OMR Fast Red
same,OMR Green,[3]; exposure 4-5 dpf,decrease in OMR Green
same,excitability,[3]; exposure 4-5 dpf,increases in excitability
same,habituation to acoustic stimuli (1 second interval),[3]; exposure 4-5 dpf,increased larval habituation
same,late activity (period 15),[3]; exposure 4-5 dpf,substantial increases in activity
